Results published in paper PMC12381739, “Druglike Molecular Degraders of the Oncogenic RNA-Binding Protein HuR” (JACS Au, 2025).
pKd: −log10 of the molar value.

Experiments:
HuR RRM1/2 = target: T1, HuR RRM1/2 (Homo sapiens, UniProt Q15717); assay: Fluorescence polarization (FP) displacement assay, 5′ FAM-labeled RNA probe from HuR; conditions: displacement of 5′-FAM RNA probe UAUUUAUUUA (20 nM) from 500 nM HuR RRM1/2; read-out: Binding affinity towards HuR in FP assay (Kd)
T1 construct: 20 nM of the 5′-FAM RNA probe and 500 nM of HuR RRM1/2
Method: Following the synthesis, our initial aim was to ensure that the new derivatives retained their affinity for HuR’s RNA-binding pocket. Thus, a binding evaluation assay was conducted. As previously reported, the RNA-binding pocket of HuR specifically recognizes the UTR sequences of mRNAs, with […] identified as a common binding motif. To evaluate the binding of each degrader, we conducted a fluorescence-based assay utilizing a 5-carboxyfluorescein (5′ FAM)-labeled reporter. This fluorescence polarization (FP) assay is based on the displacement of the 5′ FAM-labeled mRNA from HuR’s RNA-binding pocket, which provides insight into both the binding affinity of the degrader and its capacity to disrupt the HuR-mRNA interaction, thereby serving as a means of validating target engagement. When the 5′ FAM-RNA probe is bound to HuR, it forms a binary complex, resulting in slower rotational movement and a consequently high FP signal. However, when either molecule displaces the 5′ FAM-labeled RNA, the probe is released into the solution, where it undergoes rapid rotation, leading to a significant reduction in the FP signal (Figure S3). This decrease in FP serves as a quantitative measure of the degrader’s ability to compete with mRNA for HuR binding. […] As mentioned above, we synthesized a series of HuR ligand derivatives featuring indole and benzothiophene cores, along with ester and carboxylic acid functional groups.
As previously reported, the sequence of the fluorescently labeled (5′-FAM) RNA probe is […]. The assays were performed in PBS buffer (20 mM sodium phosphate, 150 mM NaCl, 1 mM dithiothreitol, 0.05% PLURONIC-127, 15% DMSO) at 293 K. Fluorescence was measured using the Synergy H1 Hybrid Multi-Mode Microplate Reader (Biotek, Agilent) with excitation and emission wavelengths set to 485 and 528 nm, respectively. Each well of a 384-well plate contained 20 nM of the 5′-FAM RNA probe and 500 nM of HuR RRM1/2. Compounds were tested at eight concentrations (0.1 nM–100 μM), with compound 10 serving as a positive control and PBS as the negative control. The protein-mRNA mixture was incubated for 1.5 h to allow for binding interactions. After this incubation, the compounds were added, and the mixture was incubated for an additional hour. The FP emission of the resulting HuR-compound complex was then recorded. The percent inhibition of binding was calculated by comparing the FP values of experimental conditions to the PBS control. The FP value corresponding to the HuR-RNA complex in the presence of DMSO was used as the 100% complexation reference, while the FP value of the labeled RNA alone was set as 0% complexation. The dissociation constant (K d) for the compound-HuR binding interaction was determined by fitting the dose–response curve to specific binding models using Prism 10.2.2. All experiments were performed in triplicate.

HuR = HuR (Homo sapiens, UniProt Q15717); assay: HuR protein expression by western blot in MCF-7 cells; format: cell-based; set-up: endogenous in cells; host or cells: MCF-7
Source text: Michigan Cancer Foundation-7 (MCF-7) cells were chosen due to their documented overexpression of HuR, which has been linked to cancer pathogenicity in this specific cell line. , Consequently, reducing HuR expression to physiologically normal levels is considered a potential strategy for novel anticancer therapies targeting breast cancers associated with HuR overexpression.
Total protein was extracted using RIPA cell lysis buffer (BioPrep) containing a protease inhibitor, and protein concentration was measured using the BCA protein assay (Sigma-Aldrich) according to the manufacturer’s protocol. Approximately 30 μg of total protein were resolved on a 12% SDS-acrylamide gel and transferred to a PVDF membrane (Immobilon FL transfer membrane; Merck). The membrane was washed with 1× Tris-buffered saline (TBS) containing 0.1% (v/v) Tween-20 (TBST; Tris-base, pH 7.6, NaCl, and Tween-20) and blocked in 1× TBST containing 5% (w/v) BSA for 2 h at room temperature. The membrane was then incubated overnight at 4 °C with primary antibodies: a 1:1000 dilution of rabbit anti-ELAVL1/HuR (Cell Signaling Technology, #12582), a 1:1000 dilution of mouse anti-Bcl2 (Cell Signaling Technology, #15071), or a 1:10,000 dilution of rabbit anti-Vinculin (Cell Signaling Technology, #13901) in 1× TBST containing 5% (w/v) BSA. Following primary antibody incubation, the membrane was washed with 1× TBST and incubated with a 1:10,000 dilution of the appropriate horseradish-peroxidase-conjugated secondary antibody (antirabbit IgG: Cell Signaling, #7074 or antimouse IgG: Cell Signaling, #7076) at room temperature for 2 h. After washing three times with 1X TBST (10 min per wash), protein bands were visualized using Clear Band ECL Substrate (Gene Bio-Application) on the Azure C300 Imaging System. The fold change in the expression of the target proteins (HuR or Bcl2) was calculated by normalizing the band intensity to the Vinculin band intensity using ImageJ.

MCF-7 spheroids = assay: 3D spheroid growth model, MCF-7; format: cell-based, human
Method: (§1) MDA-MB-231 and MCF-7 breast cancer cells were cultured in standard tissue culture plates using RPMI or DMEM media supplemented with 10% fetal bovine serum (FBS) and 1% penicillin–streptomycin until they reached approximately 80% confluency. Cells were washed with PBS and dissociated using 0.25% Trypsin-EDTA, followed by neutralization with complete medium. Viability was assessed via trypan blue exclusion, ensuring >90% viable cells. For spheroid formation, cells were seeded into ultralow attachment 96-well plates at a density of 5000 cells/well in 200 μL of complete medium. Plates were centrifuged at 1000 rpm for 5 min to promote aggregation and incubated at 37 °C in a humidified 5% CO2 atmosphere. Spheroid formation was monitored daily using an inverted microscope. Media exchanges or treatment additions were performed by carefully aspirating 100 μL of medium from each well and replacing it with an equal volume of fresh or treatment-containing medium. Differences in spheroid characteristics between the two cell lines were noted: MCF-7 cells, being epithelial and E-cadherin positive, formed compact, uniform spheroids at lower seeding densities (1000–5000 cells/well) over 3–5 days, whereas MDA-MB-231 cells, which lack E-cadherin, required higher densities (5000–10,000 cells/well) and formed looser aggregates typically within 2–4 days. All experiments were performed in duplicates. Surface area was calculated using Image View’s multipoint connection function.

Bcl2 and FOXQ1 mRNA = assay: mRNA RT-qPCR of Bcl2 and FOXQ1 in MCF-7 cells; format: cell-based, human; conditions: MCF-7, any of the concentrations evaluated
Method: MCF-7 cells were seeded into 12-well plates (∼150,000 cells per well) at 60–70% confluency incubated for 12 h. The cells were then treated with different synthesized compounds at the indicated concentrations or with vehicle control for 24 and 48 h. After treatment, total RNA was extracted using the QuickRNA Miniprep Kit (Zymo Research) according to the manufacturer’s protocol, including DNase I treatment. Reverse transcription was performed on 1 μg of total RNA using the qScript cDNA Synthesis Kit (Quantabio) following the manufacturer’s instructions. Approximately 30 ng of cDNA were used for each qPCR reaction, which was carried out using the Luna Universal qPCR Master Mix (New England BioLabs, cat# E3010G) on a CFX Opus 384 Real-Time PCR System. Relative expression levels of Bcl-2 and FOXQ1 were calculated by normalizing to GAPDH expression using the ΔΔCt method.

MDA-MB-231 spheroids = assay: 3D spheroid growth model, MDA-MB-231; format: cell-based, human
Method: as §1

GFP-HuR = target: T2, GFP-HuR (Homo sapiens, UniProt Q15717); assay: GFP-HuR reporter assay; format: cell-based; conditions: HEK 293 cells, 10 μM, 24 h
T2 construct: host or cells: HEK-293
T2 sequence (Q15717 whole entry): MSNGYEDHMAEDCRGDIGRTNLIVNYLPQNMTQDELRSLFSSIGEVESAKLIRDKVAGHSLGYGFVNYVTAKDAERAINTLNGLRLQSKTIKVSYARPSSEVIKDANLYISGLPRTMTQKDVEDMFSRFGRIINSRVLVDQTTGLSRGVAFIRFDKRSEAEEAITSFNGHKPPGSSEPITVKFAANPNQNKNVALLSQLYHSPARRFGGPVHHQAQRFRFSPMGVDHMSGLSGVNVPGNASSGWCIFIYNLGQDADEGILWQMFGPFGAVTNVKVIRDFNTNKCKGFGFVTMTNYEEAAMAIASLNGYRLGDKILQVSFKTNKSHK
Method: To assess the effects of the HuR degraders in cells in a high-throughput fashion, a GFP-HuR reporter assay was utilized. In this assay, HuR was fused with green fluorescent protein (GFP), facilitating the monitoring of its expression and stability through fluorescence intensity (Figure A). A decrease in the GFP signal indicates HuR degradation.
HEK-293 cells were cultured in 100 mm diameter plates to approximately 70% confluency and transfected with 15 μg of GFP-HuR (ELAVL1) reporter plasmid (Addgene #121162) in a 1:2 ratio with the PEI transfection reagent (Med Chem Express, HY-K2014) at a concentration of 1 mg/mL, following the manufacturer’s recommended protocol. After 6 h of transfection, the cells were reseeded into 96-well plates. […] Fluorescence measurements were taken using the Synergy H1 Hybrid Multi-Mode Microplate Reader (Biotek, Agilent) with excitation and emission wavelengths set to 479 and 520 nm, respectively, according to the manufacturer’s instructions. All experiments were performed in triplicate.

Chain of HuR (Q15717 whole entry): as above
T1 sequence (Q15717 18-186 limits assumed): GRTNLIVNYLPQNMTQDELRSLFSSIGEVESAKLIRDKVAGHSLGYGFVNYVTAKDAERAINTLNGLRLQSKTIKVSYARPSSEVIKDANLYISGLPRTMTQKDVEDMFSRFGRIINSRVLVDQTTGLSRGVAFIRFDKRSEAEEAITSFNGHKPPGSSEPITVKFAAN

Structure (SMILES) | pKd (HuR RRM1/2) | other results
CCOC(=O)c1cc2cc(-n3cc(CNc4cccc5c4C(=O)N(C4CCC(=O)NC4=O)C5=O)nn3)ccc2s1 (centres unmarked) [PRO-HuR4] | 7.97 | time-dependent response of HuR degradation (HuR; MCF-7, 10 μM): did not; HuR degradation ability (HuR; MCF-7, 10 μM, 24 h): higher degradation efficiency
O=C1CCC(N2C(=O)c3cccc(NCc4cn(-c5ccc6[nH]c(C(=O)O)cc6c5)nn4)c3C2=O)C(=O)N1 (centres unmarked) [PRO-HuR1] | 8.02 | 
CCOC(=O)c1cc2cc(NC(=O)CCC(=O)N3CCN(c4cccc5c4C(=O)N(C4CCC(=O)NC4=O)C5=O)CC3)ccc2s1 (centres unmarked) [PRO-HuR6] | 5.03 | 
CCOC(=O)c1cc2cc(NC(=O)/C=C/C(=O)c3ccc(OC)cc3)ccc2s1 [MG-HuR1] | 5.97 | 
CCOC(=O)c1cc2cc(NC(=O)C3CN(c4cccc5c4C(=O)N(C4CCC(=O)NC4=O)C5=O)C3)ccc2s1 (centres unmarked) [PRO-HuR8] | 5.19 | 
CCOC(=O)c1cc2cc(-n3cc(-c4ccc(C(=O)NCCNc5cccc6c5C(=O)N(C5CCC(=O)NC5=O)C6=O)cc4)nn3)ccc2s1 (centres unmarked) [PRO-HuR7] | 7.34 | 
CCOC(=O)c1cc2cc(NC(=O)/C=C/c3ccc(C(F)(F)F)cc3)ccc2s1 [MG-HuR4] | 5.83 | 
O=C1CCC(N2C(=O)c3cccc(NCCc4cn(CCCC(=O)Nc5ccc6[nH]c(C(=O)O)cc6c5)nn4)c3C2=O)C(=O)N1 (centres unmarked) [PRO-HuR2] | 8.00 | 
CCOC(=O)c1cc2cc(NC(=O)/C=C/c3ccc(C(F)(F)F)cc3)ccc2[nH]1 [MG-HuR3] | 8.03 | 
CCOC(=O)c1cc2cc(NC(=O)C3CCN(c4cccc5c4C(=O)N(C4CCC(=O)NC4=O)C5=O)CC3)ccc2s1 (centres unmarked) [PRO-HuR5] | 8.19 | 
CCOC(=O)c1cc2cc(N)ccc2[nH]1 [Binder 1] |  | day at which a decrease in spheroid surface area was first observed (MCF-7 spheroids): 14 days; spheroid growth (MCF-7 spheroids; 10 nM): no significant impact on spheroid growth; RNA levels of Bcl2 and FOXQ1 with HuR ligands (Bcl2 and FOXQ1 mRNA): no effect was observed; HuR expression after treatment with HuR ligands alone (HuR; MCF-7, Binder 1 1 µM 24 h, Binder 2 10 µM 48 h (Figure S8)): No significant decrease in HuR expression; day at which a decrease in spheroid surface area was first observed (MDA-MB-231 spheroids): 9 days; spheroid growth (MDA-MB-231 spheroids; 10 nM): no significant impact on spheroid growth
O=C(/C=C/c1ccc(C(F)(F)F)cc1)Nc1ccc2sc(C(=O)O)cc2c1 [MG-HuR5] | 6.09 | GFP-HuR fluorescence intensity (GFP-HuR): significant reduction in fluorescence intensity
